Like-named read-outs stand apart in the source and are kept apart here.
Columns and labels:
CDK4:cyclin D1 = CDK4:cyclin D1 (Homo sapiens, UniProt P11802); test: In vitro kinase assay, CDK4:cyclin D1, GST-Rb substrate; conditions: for CDK4 kinase inhibitory potency compared with parent compounds: parents 3-ATA and Compound 6
Experimental: In vitro kinase assay. Seventy-two hours after infection of 1×10^7 Sf9 cells with baculovirus containing a human CDK gene and/or a cyclin gene, cells were lysed in 250 μl of lysis buffer [50 mM HEPES (pH 7.5), 10 mM MgCl2, 1 mM DTT, 5 ig/ml of aprotinin, 5 μg/ml of leupeptin, 0.1 mM NaF, 0.2 mM phenylmethylsulfonyl fluoride (PMSF), and 0.1 mM sodium orthovanadate], centrifuged, and lysates stored at −70° C. Five microliters of CDK:cyclin lysate were mixed with test compounds in 40 μl of kinase buffer (200 mM Tris-HCl, pH 8.0, 100 mM MgCl2, 10 mM EGTA) and incubated at 30° C. for 30 min. About 400 ng of purified GST-Rb fusion protein and 5 μCi of γ-[^32P]ATP were added to the mixture and incubated at 30° C. for 15 min. Reactions were stopped by the addition of 250 μl of IP buffer (50 mM Tris-HCl, pH 8.0; 150 mM NaCl, 0.5% NP-40) and 15 μl glutathione sepharose. After one hour incubation at 4° C., sepharose beads were washed four times with IP buffer, mixed with 18 μl of 2×sample buffer and electrophoresed on an 8% Tris-glycine gel (Novex, San Diego, Calif.) at 125 V for 90 min. Equal recovery of GST-Rb fusion protein was confirmed by Coomassie blue staining prior to autoradiography.
These compounds were assessed for CDK4:cylin D kinase inhibitory activity using baculovirus-expressed human CDK4 and cyclin D1, and a GST-Rb fusion protein as substrate.
CDK2:cyclin E = target: T1, CDK2:cyclin E (Homo sapiens, UniProt P24941); test: In vitro kinase assay, CDK2:cyclin E; format: biochemical; conditions: for Ratio CDK2/E:CDK4: IC50 ratio, CDK4 as denominator
T1 construct: made in house; host or cells: Sf9 insect cells, baculovirus; unpurified lysate
From the text: (§1) Characterization of 3-ATA. To examine the specificity of 3-ATA inhibitory activity for CDK4:cyclin D1 kinase, we performed in vitro kinase assays using baculovirus-expressed human CDC2:cyclin A, CDK2:cyclin A, and CDK2:cyclin E complexes.

CDC2:cyclin A = target: T2, CDC2:cyclin A (Homo sapiens, UniProt P06493); test: In vitro kinase assay, CDC2:cyclin A; format: biochemical; conditions: for Ratio CDC2A:CDK4: (IC50 CDC2)/(IC50 CDK4)
T2 construct: made in house; host or cells: Sf9 insect cells, baculovirus; unpurified lysate
From the text: as §1

CDK2:cyclin A = target: T3, CDK2:cyclin A (Homo sapiens, UniProt P24941); test: In vitro kinase assay, CDK2:cyclin A; format: biochemical; conditions: for Ratio CDK2/A:CDK4: IC50 ratio, CDK4 as denominator
T3 construct: made in house; host or cells: Sf9 insect cells, baculovirus; unpurified lysate
From the text: as §1

CDK4 = target: T4, CDK4 (Homo sapiens, UniProt P11802); test: CDK4 binding assay (GST-p16 binding to CDK4)
T4 construct: made in house; host or cells: CDK4 and cyclin D1: Sf9 cells, baculovirus, [35S]methionine-labelled cleared lysate; GST-p16: E. coli DH5α
Experimental: CDK4 binding assay. Sf9 cells (1×10^7) were co-infected with baculovirus containing a cloned human CDK4 gene and/or a cyclin D1 gene in 12.5 ml of Grace's insect medium (Paragon, Baltimore, Md.) containing 10% FBS. After 40 h, cells were washed and placed in 5 ml of methionine-free medium containing 200 μCi/ml of [^35S]methionine (1000 Ci/mmole) for 4 h, followed by lysis in 250 μl. Cleared cell lysate (10 μl) was incubated with 400 ng of wildtype or mutant GST-p16 fusion proteins using the same conditions as the in vitro kinase assay. […] The gel was stained using Coomassie blue, dried, and autoradiography was performed. […] To test the effect of compounds on p16 binding to CDK4, 100 μM of each compound was incubated with CDK4:cyclin D1 lysate for 30 min prior to adding GST-p16 fusion protein.

Chain of CDK4:cyclin D1 (P11802 whole entry): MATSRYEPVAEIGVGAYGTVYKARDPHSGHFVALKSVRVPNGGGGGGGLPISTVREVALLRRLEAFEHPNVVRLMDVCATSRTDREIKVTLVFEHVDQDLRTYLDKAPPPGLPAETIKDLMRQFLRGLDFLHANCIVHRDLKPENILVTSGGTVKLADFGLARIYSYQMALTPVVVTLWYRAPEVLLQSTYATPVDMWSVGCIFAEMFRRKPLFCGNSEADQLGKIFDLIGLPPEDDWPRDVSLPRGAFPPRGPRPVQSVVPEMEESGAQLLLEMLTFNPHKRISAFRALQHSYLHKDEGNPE
Chain of CDK4:cyclin D1 (P24385 whole entry partner): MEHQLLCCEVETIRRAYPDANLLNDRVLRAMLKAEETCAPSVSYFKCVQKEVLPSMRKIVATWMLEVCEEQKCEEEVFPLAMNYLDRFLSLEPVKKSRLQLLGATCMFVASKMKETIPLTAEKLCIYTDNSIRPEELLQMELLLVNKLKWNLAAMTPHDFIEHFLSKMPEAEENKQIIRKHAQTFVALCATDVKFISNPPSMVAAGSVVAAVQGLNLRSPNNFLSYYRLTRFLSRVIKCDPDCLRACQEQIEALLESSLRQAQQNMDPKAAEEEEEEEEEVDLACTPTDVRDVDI
T4 sequence (P11802 whole entry): as the sequence (P11802 whole entry) above

| IC50 (CDK2:cyclin E) [µM] | Ratio CDK2/E:CDK4 (CDK2:cyclin E) | IC50 (CDC2:cyclin A) [µM] | IC50 (CDK2:cyclin A) [µM] | Ratio CDK2/A:CDK4 (CDK2:cyclin A) | IC50 (CDK4:cyclin D1) [µM] | Compound | other results |
| --- | --- | --- | --- | --- | --- | --- | --- |
|  |  |  |  |  |  | CCC/C=C/C=C/C(=O)O[C@H]1/C(=C/C(=O)OC)C[C@H]2C[C@H]([C@@H](C)O)OC(=O)C[C@H](O)C[C@@H]3C[C@H](OC(C)=O)C(C)(C)[C@](O)(C[C@@H]4C/C(=C/C(=O)OC)C[C@H](/C=C/C(C)(C)[C@]1(O)O2)O4)O3 [Bryostatin 1, reference compound] | Inhibition of GST-Rb phosphorylation by CDK4:cyclin D1 (CDK4:cyclin D1; concentrations up to 100 μM): no inhibitory activity |
| 80 | 11.8 | 60 | > 100 | >14.7 | 6.8 | Nc1ccc2c(=S)c3ccccc3[nH]c2c1 [Compound 3, 3-Amino-10H-acridine-9-thione] | Ratio CDK2/E:CDK4 (CDK2:cyclin E; listed as 3-ATA): at least nine-fold higher; Ratio CDC2A:CDK4 (CDC2:cyclin A): 8.8; Ratio CDC2A:CDK4 (CDC2:cyclin A; listed as 3-ATA): at least nine-fold higher; Ratio CDK2/A:CDK4 (CDK2:cyclin A; listed as 3-ATA): at least nine-fold higher; Effect of exogenous ATP on inhibitory activity in CDK4 kinase assay (CDK4:cyclin D1; exogenous ATP 0 to 600 μM): did not alter the inhibitory activity; Decrease of binding of CDK4 to normal p16 (CDK4; 100 μM compound): 70% |
| > 100 | >45 | > 100 | > 100 | >45 | 2.2 | COc1ccc(OC)c2c(=S)c3ccccc3[nH]c12 [Compound 4, 1,4-Dimethoxy-10H-acridine-9-thione] | CDK2 kinase inhibitory activity (CDK2:cyclin E) (CDK2:cyclin E; concentrations up to 100 μM): no CDC2 or CDK2 kinase inhibitory activity; Ratio CDC2A:CDK4 (CDC2:cyclin A): >45; CDC2 kinase inhibitory activity (CDC2:cyclin A; concentrations up to 100 μM): no CDC2 or CDK2 kinase inhibitory activity; CDK2 kinase inhibitory activity (CDK2:cyclin A) (CDK2:cyclin A; concentrations up to 100 μM): no CDC2 or CDK2 kinase inhibitory activity; CDK4 kinase inhibitory potency compared with parent compounds (CDK4:cyclin D1): more potent CDK4 kinase inhibitors than the parent compounds; Inhibition of p16INK4A binding to CDK4 (CDK4; 100 μM of each compound): did not inhibit |
| > 100 | >91 | 70 | > 100 | >91 | 1.1 | O=C(CNc1ccc2c(=S)c3ccccc3[nH]c2c1)Nc1ccccc1-c1ccccc1NC(=O)CNc1ccc2c(=S)c3ccccc3[nH]c2c1 [Compound 5, 2,2′-Biphenyldiamine, bis[N,N′-[3-(amidonmethylamino)-10H-acridine-9-thione]]] | CDK4 kinase inhibitory potency compared with parent compounds (CDK4:cyclin D1): more potent CDK4 kinase inhibitors than the parent compounds |
| > 100 |  | > 100 | > 100 |  | 5 | O=S1(=O)NN=C(NCc2ccc(F)cc2)c2ccccc21 [Compound 6, 4-(4-Fluorobenzylamino)-1,2,3-benzothiadiazine-1,1-dioxide] |  |
|  |  |  |  |  |  | O=S1(=O)NNC(=NCc2ccc(Cl)c(Cl)c2)c2ccccc21 [NSC 645788] | IC50 (CDK4:cyclin D1; read-out: IC50 value CDK4/D1): 17 µM |
|  |  |  |  |  |  | C[C@@H]1[C@]2(O[C@H]3C=C4[C@@H]5CC[C@H]6Cc7nc8c(nc7C[C@]6(C)[C@H]5C[C@@H](O)[C@]4(C)[C@]31O)C[C@@H]1CC[C@H]3C4=CC[C@@H]5[C@H](C)[C@@]6(OC[C@]45C(=O)C[C@@H]3[C@@]1(C)C8)OC(C)(C)C[C@H]6O)O[C@](C)(CO)C[C@H]2O [cephalostatin 1, reference compound] | IC50 (CDK4:cyclin D1; read-out: IC50 value CDK4/D1): 20 µM |
